From US20210071180A1, “MICRORNA 584-5P COMPOSITIONS AND METHODS FOR TREATING CANCER” (BOARD OF REGENTS, THE UNIVERSY OF TEXAS SYSTEM, priority 2018, published 2021) come the findings set out here.

Format in all cases: cell-based
In series [1] the test system is activated CHK1, ATR, BRCA1. The series can be described thus: Western blot of checkpoint proteins. To be noted: miR-584-5p mimic-transfected MB cells. As to the method: FIG. 13C-D show representative immunofluorescence images showing 53BP1 foci in D556Med cells transfected with miR-NC or miR-584-5p mimic (C) or scramble-siRNA or eIF4E3/HDAC1-siRNAs (D) and treated with or without 10 Gy of IR.
Immunofluorescence and Western blot analysis Immunofluorescence analyses was carried out on cells fixed in 4% paraformaldehyde (Imam, J. S. et al. PLoS One 7, e52397, (2012)). Western blot analysis was performed on cell extracts from miR-584-5p mimic- or target gene siRNA-transfected MB cell lines in accordance with previously reported studies (Rajamanickam, S. et al. Clin Cancer Res 22, 3524-3536, (2016); and Imam, J. S. et al. PLoS One 7, e52397, (2012). Antibodies against horseradish peroxidase-conjugated β-actin (1:50,000; #A5316), β-tubulin (#T8328), and glyceraldehyde-3-phosphate dehydrogenase (GAPDH) (1:25,000; #G9295) were purchased from Sigma-Aldrich. Antibody against eIF4E3 (1:1000; #17282-1-AP) was purchased from Proteintech. Antibodies against HDAC1 (1:1000; #5356), pCHK1 (1:1000; #2348), and CHK1 (1:1000; #2360) were purchased from Cell Signaling Technology (Danvers, Mass., USA). Antibodies against MYC (1:1000; #Sc-40), BRCA1 (1:1000; #6954), and ATR (1:1000; #sc-515173) were purchased from Santa Cruz. Antibody against 53BP1 (1:300; #A300-272AT) was purchased from Bethyl Laboratories. […]
Background: Immunoblotting shows a protein as a band on a membrane.

Series [2] relates to D556Med cells. The series is described as follows: c-Myc overexpression rescue, cell viability/clonogenic/migration. To be noted: cells transfected with c-Myc expression vector. The method, then:
FIG. 15A depicts a photomicrograph showing migrated MB cells transfected with control plasmid, c-Myc overexpression plasmid or c-Myc overexpression plasmid+miR-584-5p mimic.
Because c-Myc supports cancer stem cell growth, promotes radioresistance (Gravina, G. L. et al. Radiat Res 185, 411-422, (2016)), and has elevated levels in VCR-resistant cancer cells (He, Y., Zhang, J., Zhang, J. & Yuan, Y. Chin Med J (Engl) 113, 848-851 (2000)), it was tested whether miR-584-5p and its target genes may regulate c-Myc-amplified MB growth and therapy sensitization by targeting c-Myc levels/functions. […] In FIG. 14D, the p-values were calculated using standard Student t-tests. Error bars represent mean±SEM. Because no predicted miR-584-5p binding site exists in the c-Myc 3′-UTR, miR-584-5p probably regulates c-Myc levels indirectly. To test that possibility, it was assessed whether miR-584-5p target genes may regulate c-Myc levels in MB. Moreover, eIF4E1 (not eIF4E3) induced c-Myc protein expression in diffuse B-cell lymphoma cells (Landon, A. L. et al. Nat Commun 5, 5413, (2014)). […] Cell viability was assessed using alamarBlue. The p-value was calculated using one-way ANOVA followed by Sidak's multiple-comparisons test. […]

The subject of series [3] is eIF4E1. The series can be described thus: Western blot analysis of eIF4E1. The settings on record: MB cells. The method, then:
Next, it was determined whether miR-584-5p and its target genes, eIF4E3 and HDAC1, show reciprocal expression pattern in MB. […] In FIG. 16A, data represent Log 2 ratio tumor/cerebellum control. Data mined from GSE42657. In FIG. 16B, data represent Log 2 ratio tumor/cerebellum control. Data mined from GSE28245. To further confirm those results, miR-584-5p expression in MB patient-derived xenografts was examined. […] The p-values were calculated using one-way ANOVA followed by Sidak's multiple-comparisons test. Error bars represent mean±SEM. To further confirm the specificity of miR-584-5p-eIF4E3 signaling axis in MB, the expression of eIF4E1, which acts as an oncogene in several cancers (Bhat, M. et al. Nat Rev Drug Discov 14, 261-278, (2015)), was tested in miR-584-5p treated cells.

Series [4] relates to normal neural stem cell. The series is described as follows: Normal neural stem cell growth.

For the substance “miR-584-5p: microRNA mimic; nucleotide sequence UUAUGGUUUGCCUGGGACUGAG (SEQ ID NO: 1); purchased from Thermofisher (chemistry not given here)”, the “levels of activated CHK1 and ATR, as well as BRCA1” value in series [1] was “significantly lower levels”. Moreover, the “growth-promoting effect of c-Myc overexpression” value in series [2] is given as “rescues cancer growth-promoting effects of c-Myc”. Also, the eIF4E1 levels result in series [3] is on record as “did not show any change”. Also, the “normal neural stem cell growth” value in series [4] is given as “without affecting normal neural stem cell growth”.
